By IC50 is commonly meant the concentration at which inhibition is half-maximal.

The record followed here is US20040053847A1, “Diastereomeric peptitdes and pharmaceutical compositions comprising them” (priority 2000, published 2004).

In brackets after ≈: the same amount, converted by molar mass. Square brackets hold non-standard residues; d marks the D form. Peptide text beside a SMILES is read from it.

One data set has as its system human breast MCF-7 cells. Description: Xenograft model of human breast MCF-7 cells in SCID mice. The class given is in vivo. Here is the method: The in-vivo anticancer assay was conducted on SCID (Severe Combined Immune Deficiency) mice using the xenograft model of human breast MCF-7 cells. Groups of 6 SCID female mice weighing 18-20 g (6-week old), bred in an animal isolator (IVC racks under specific pathogen-free (SPF) conditions at 24±1° C., were used. Viable human breast carcinoma MCF-7 cells (ATCC HTB-22−1×10^7 cells in 0.2 ml of PBS) were injected subcutaneously (s.c.) into the dorsal side of SCID mice. 50 μg/mouse of estradiol benzoate was injected s.c. weekly as a supplement for 4 weeks. […] Mitomycin at a dose of 2 mg/kg was administered intraperitoneally (IP) twice a week for 5 doses. The tumor size, body weight and the signs of overt animal toxicity after each treatment were recorded and observed. At the end of the experiment, hematological analysis was carried out.
A general note: A xenograft is tissue or cells of one species grown in another, often human tumour cells in immunodeficient mice.

Data set [1] relates to Aspergillus niger ATCC 9642. In kind it is cell-based. The note with it: ATCC 9642. Here is the method:
(§1) The antifungal activity of the diastereomers was examined in sterile 96-well plates (Nunc F96 microtiter plates) in a final volume of 200 μL as follows: 100 μl of a suspension containing fungi at concentration of 1×10^4 Colony-Forming Units (CFU)/ml in culture medium (RPMI 1640, 0.165 M MOPS pH 7.0, with L-glutamine, without NaHCO3) was added to 100 μl of water containing the peptide in serial 2-fold dilutions in water. The fungi were incubated in the presence of the diastereomeric peptides for 24-48 h at 35° C. in a Binder KB115 incubator under agitation. Growth inhibition was determined by measuring the absorbance at 620 nm with a Microplate autoreader E1309 (Bio-tek Instruments). Antifungal activity is expressed as the minimal inhibitory concentration (MIC), the concentration at which 100% inhibition of growth was observed after the incubation time mentioned above. The fungi used were: Aspergillus niger ATCC 9642, Candida albicans ATCC 10231 and Cryptococcus neoformans ATCC 66031.

Data set [2] deals with Candida albicans ATCC 10231. In kind it is cell-based. The settings on record: ATCC 10231. Here is the method:
as §1

The test system of data set [3] is Cryptococcus neoformans ATCC 66031. In kind it is cell-based. How it is done:
as §1

Data set [4] deals with B16 F10 mouse melanoma cell line. Description: In vitro anticancer activity, Trypan blue cell viability, LC50. The settings on record: 50% cell mortality after 24 h incubation, medium without serum. How it is done:
The anticancer activity of the diastereomers 1, 2, 8, 9 and 10 was examined against B16 F10 mouse melanoma cell line. Melanoma cells were grown in RPMI-1640 medium supplemented with 10% fetal calf serum and antibiotics, at 37° C., in humidified atmosphere at 5% CO2 and 95% air. In addition, the cell-selectivity of the diastereomeric peptides was studied by examining their effect on NIH-3T3 normal fibroblasts cell line. NIH-3T3 mouse fibroblasts cells were grown in DMEM medium supplemented with 10% bovine calf serum and antibiotics under the same conditions as described above for B16 F10 mouse melanoma cells. Melanoma cells (2×10^5 cells ml^−1) or NIH-3T3 cells (2.5×10^5 cells ml^−1) were seeded in tissue culture plates (3.5 cm). After 48 h, cells were washed thrice with the corresponding medium. Then the cells were incubated at 37° C. in medium (without serum and antibiotics) in the presence of the tested diastereomeric peptides dissolved in PBS, at different concentrations. […] Following 24 h of incubation, the cells were harvested with trypsin (0.25%)-EDTA (0.05%) and centrifuiged for 10 min at 270×g. The precipitated cells were suspended in the corresponding medium and counted in a hemocytometer (Neubauer). Cell viability was determined by Trypan blue dye exclusion.

A short description of data set [5]: Cell selectivity, Trypan blue cell viability, LC50. The class given is cell-based, mouse. The note with it: mouse, NIH-3T3 fibroblasts; 50% cell mortality after 24 h incubation, medium without serum; read-out: Lethal Concentration (LC50), NIH-3T3 fibroblasts.
Data set [6] has as its system PC-3 prostate adenocarcinoma. The class given is cell-based, human. The settings on record: 24 h. How it is done:
(§2) Aliquots of 100 μl of tumor cell suspension (about 2.5-5×10^3/well) were placed in 96-well microtiter plates in an atmosphere of 5% CO2 at 37° C. […] At the end of incubation, 20 μl of AlamarBlue 75% reagent was added to each well for another 6-hour incubation before detection of cell viability by fluorescence intensity. Fluorescence intensity was measured using a Spectraflour Plus plate reader with excitation at 530 nm and emission at 590 nm. The assays were used to detect changes in cell proliferation based on the ability of viable cells to cause AlamarBlue to change from its oxidized (non-fluorescent, blue) to a reduced (fluorescent, red) form. With the results obtained from the AlamarBlue reaction, cell proliferation can be quantified and metabolic activity of viable cells can be examined.

The test system of another data set is A549 lung carcinoma. In kind it is cell-based, human. The settings on record: 24 h. Here is the method: as §2
For data set [7], the system named is MCF-7 breast adenocarcinoma. The class given is cell-based, human. The settings on record: 24 h. Here is the method: as §2
Data set [8] concerns HT-29 colon adenocarcinoma. The class given is cell-based, human. The settings on record: 24 h. How it is done:
as §2

The test system of data set [9] is SK-MEL- (ATCC HTB-70) malignant melanoma. In kind it is cell-based, human. The note with it: 24 h. Here is the method: as §2
[10] abbreviates: Hematology analysis on Day 25, MEAN ± SEM.
The mark [11] stands for this setting: hematological analysis at the end of the assay.
Where [12] appears, read: peptide 9 3 mg/kg IV, mitomycin 2 mg/kg IP.

Consider `CO[C@@]12[C@H](COC(N)=O)C3=C(C(=O)C(C)=C(N)C3=O)N1C[C@@H]1N[C@@H]12` [Mitomycin C, mitomycin C], for which, in the data set with human breast MCF-7 cells (setting [10]), the PLT was determined as 396000 µL⁻¹, the RBC is 10.55 ± 0.37 × 10^6/μl and the WBC was 670 µL⁻¹. For the same compound, in the data set on human breast MCF-7 cells (setting [11]), the “Reduction of RBC” value is recorded as “significant reduction”; the “Reduction of WBC and platelets” value is “significant reduction”. Moreover, the “Effect on tumor growth (FIG. 1)” value in the data set on human breast MCF-7 cells (peptide 9 3 mg/kg IV twice a week, 6 doses, mitomycin 2 mg/kg IP twice a week, 5 doses) is listed as “more potent than peptide 9”. In the data set with human breast MCF-7 cells (setting [12]), the “Body weight and condition of animals (FIG. 2)” value was “signs of weakness and loss of weight”; the “Side effects in treated animals” value is “severe side effects throughout the assay period”.

Consider `CC(C)C[C@H](NC(=O)[C@H](CC(C)C)NC(=O)[C@@H](CCCCN)NC(=O)[C@H](CC(C)C)NC(=O)[C@H](CC(C)C)NC(=O)[C@H](CCCCN)NC(=O)[C@@H](CCCCN)NC(=O)[C@@H](CC(C)C)NC(=O)[C@H](CC(C)C)NC(=O)[C@H](CCCCN)NC(=O)[C@H](CCCCN)NC(=O)[C@H](CC(C)C)NC(=O)[C@@H](CC(C)C)NC(=O)[C@H](CCCCN)NC(=O)[C@@H](N)CC(C)C)C(N)=O` [Peptide 3, [D]-L^3,8,K^9,13-K6L9] (H-LK[dL]LKKL[dL][dK]KLL[dK]LL-NH2; N-terminus assumed), for which the “MIC, A. niger ATCC 9642” value in data set [1] was 90 µg/mL (≈ 49.9 µM). Also, in data set [2], the “MIC, C. albicans ATCC 10231” value stood at 40 µg/mL (≈ 22.2 µM). In addition, the “MIC, C. neoformans ATCC 66031” value in data set [3] amounted to 2.8 µg/mL (≈ 1.55 µM).

As for `CC(C)C[C@H](NC(=O)[C@H](CC(C)C)NC(=O)[C@@H](CCCCN)NC(=O)[C@H](CC(C)C)NC(=O)[C@H](CC(C)C)NC(=O)[C@H](CCCCN)NC(=O)[C@@H](CCCCN)NC(=O)[C@@H](CC(C)C)NC(=O)[C@H](CC(C)C)NC(=O)[C@@H](CCCCN)NC(=O)[C@H](CCCCN)NC(=O)[C@H](CC(C)C)NC(=O)[C@@H](CC(C)C)NC(=O)[C@H](CCCCN)NC(=O)[C@@H](N)CC(C)C)C(N)=O` [Peptide 4, [D]-L^3,8,K^6,9,13-K6L9] (H-LK[dL]LK[dK]L[dL][dK]KLL[dK]LL-NH2; N-terminus assumed), the “MIC, A. niger ATCC 9642” value in data set [1] was 180 µg/mL (≈ 99.7 µM). In addition, the “MIC, C. albicans ATCC 10231” value in data set [2] is 50 µg/mL (≈ 27.7 µM). Also, the “MIC, C. neoformans ATCC 66031” value in [3] is 5.6 µg/mL (≈ 3.1 µM).

On to `CC(C)C[C@H](NC(=O)CN)C(=O)N[C@H](CC(C)C)C(=O)N[C@@H](CC(C)C)C(=O)N[C@@H](CCCNC(=N)N)C(=O)N[C@H](CC(C)C)C(=O)N[C@@H](CC(C)C)C(=O)N[C@H](CCCCN)C(=O)N[C@H](CCCCN)C(=O)N[C@@H](CC(C)C)C(=O)N[C@@H](CC(C)C)C(=O)N[C@@H](CCCNC(=N)N)C(=O)N[C@H](CC(C)C)C(=O)N[C@@H](CC(C)C)C(=O)N[C@@H](CCCCN)C(=O)N[C@@H](CCCCN)C(N)=O` [Peptide 5, [D]-L^3,6,13,K^8,9-GK4R2L9] (H-GL[dL]LR[dL]L[dK][dK]LLR[dL]LKK-NH2; N-terminus assumed), for which the “MIC, A. niger ATCC 9642” value in data set [1] turned out to be 50 µg/mL (≈ 26.1 µM). Also, the “MIC, C. albicans ATCC 10231” value in [2] is 50 µg/mL (≈ 26.1 µM). In data set [3], the “MIC, C. neoformans ATCC 66031” value is 3 µg/mL (≈ 1.56 µM).

In the case of `CC(C)C[C@H](NC(=O)[C@H](CCCCN)NC(=O)[C@@H](CC(C)C)NC(=O)[C@H](CC(C)C)NC(=O)[C@@H](N)CCCCN)C(=O)N[C@@H](CC(C)C)C(=O)N[C@H](CCCCN)C(=O)N[C@H](CCCCN)C(=O)N[C@@H](CC(C)C)C(=O)N[C@H](CC(C)C)C(=O)N[C@@H](CCCCN)C(=O)N[C@@H](CC(C)C)C(=O)N[C@H](CC(C)C)C(=O)N[C@@H](CC(C)C)C(=O)N[C@@H](CCCCN)C(N)=O` [Peptide 7, [D]-L^3,10,13,K^7,8-K6L9] (H-KL[dL]KLL[dK][dK]L[dL]KL[dL]LK-NH2; N-terminus assumed), the “MIC, A. niger ATCC 9642” value in data set [1] is 50 µg/mL (≈ 27.7 µM). Moreover, the “MIC, C. albicans ATCC 10231” value in data set [2] came to 50 µg/mL (≈ 27.7 µM). For the same compound, the “MIC, C. neoformans ATCC 66031” value in data set [3] was determined as 2.9 µg/mL (≈ 1.61 µM).

Turning to `CC(C)C[C@H](NC(=O)CN)C(=O)N[C@H](CC(C)C)C(=O)N[C@@H](CCCCN)C(=O)N[C@@H](CC(C)C)C(=O)N[C@@H](CC(C)C)C(=O)N[C@H](CCCCN)C(=O)N[C@H](CCCCN)C(=O)N[C@@H](CC(C)C)C(=O)N[C@H](CC(C)C)C(=O)N[C@@H](CCCCN)C(=O)N[C@@H](CC(C)C)C(=O)N[C@H](CC(C)C)C(=O)N[C@@H](CC(C)C)C(=O)N[C@@H](CCCCN)C(=O)N[C@@H](CCCCN)C(N)=O` [Peptide 8, [D]-L^3,10,13,K^7,8-GK6L9] (H-GL[dL]KLL[dK][dK]L[dL]KL[dL]LKK-NH2; N-terminus assumed), in data set [4], the “Lethal Concentration (LC50), B16-F10 melanoma” value was determined as 9 µg/mL. Moreover, the “MIC, A. niger ATCC 9642” value in data set [1] is 30 µg/mL (≈ 16.1 µM). Further, the “MIC, C. albicans ATCC 10231” value in data set [2] turned out to be 30 µg/mL (≈ 16.1 µM). Moreover, in data set [3], the “MIC, C. neoformans ATCC 66031” value is 1.5 µg/mL (≈ 0.806 µM). Also, the CC50 at 24 h in data set [5] is 30 µg/mL (≈ 16.1 µM).

As for `CC(C)C[C@H](NC(=O)[C@H](CC(C)C)NC(=O)[C@@H](CCCCN)NC(=O)[C@@H](CCCCN)NC(=O)[C@H](CC(C)C)NC(=O)[C@@H](CC(C)C)NC(=O)[C@H](CCCCN)NC(=O)[C@H](CC(C)C)NC(=O)[C@@H](CC(C)C)NC(=O)[C@H](CC(C)C)NC(=O)[C@@H](N)CCCCN)C(=O)N[C@@H](CCCCN)C(=O)N[C@H](CC(C)C)C(=O)N[C@@H](CC(C)C)C(=O)N[C@@H](CCCCN)C(N)=O` [Peptide 10, [D]-L^3,6,13,K^8,9,13-K6L9] (H-KL[dL]LK[dL]L[dK][dK]LLK[dL]LK-NH2; N-terminus assumed), the CC50 at 24 h in data set [5] was 140 µg/mL (≈ 77.6 µM). For the same compound, the IC50 is 8.9 µM in [6]; 2.4 µM in the data set with A549 lung carcinoma; 3.6 µM in data set [7]; 15 µM in data set [8]; 2.6 µM in [9].
